Test results from patent publication US6099845A, “Process for the preparation of Rhus verniciflua extract and anti-cancer composition containing same” (Forest Genetics Research Institute, priority 1997, dated 2000).
Entries after “also recorded” stand apart in the source; their conditions may differ.

Columns and labels:
[1] = tested on: blood vessel and capillary; details: cited from earlier work
[2] = tested on: formation of peroxidized lipids; details: cited from earlier work
[3] = tested on: allergy and dermatopathies; details: cited from earlier work
[4] = DPPH free radical decolorization (anti-oxidative activity); format: biochemical; details: 0.04% ethanol solution, 30 min, room temperature, 517 nm
Method: DPPH(1,1-diphenyl-2-picrylhydrazyl) is a free radical which is very stable in an organic solution. […] Accordingly, it is advantageously employed in measuring anti-oxidative activity of a material.
DPPH was dissolved in absolute ethanol to a concentration of […]("DPPH ethanol solution"). To this solution, the extract of R. verniciflua obtained in Example 1 and Sesamol (Sigma, U.S.A.), a natural anti-oxidant were added to a concentration of 0.04%, respectively to obtain an "extract ethanol solution" and a "Sesamol ethanol solution".
2 ml of the DPPH ethanol solution was put into each of two 4 me disposable spectrophotometer cuvettes(Muller ratiolab, Germany). Then, 2 ml of the extract ethanol solution was placed in one cuvette and 2 ml of the Sesamol ethanol solution was put into the other cuvette. The mixtures were reacted at room temperature for 30 min. As a control, a cuvette containing 4 ml of the DPPH ethanol solution was used. The absorption of each cuvette was determined at 517 nm with a spectrophotometer(HP 8453 diode array spectrophotometer). The absorption of the extract ethanol solution was calibrated with the absorption of the control, and the capability of the extract ethanol solution to decolorize the purple color of the DPPH ethanol solution was calculated based on the calibrated absorption of the Sesamol ethanol solution.

F9 teratocarcinoma cells = details: cited from earlier work
angiogenesis = details: cited from earlier work
cancer = details: cited from earlier work
cancer cells = details: cited from earlier work
LamB1 gene = format: cell-based, mouse; details: F9 cells, 7 days; FIG. 8

O=c1c(O)c(-c2ccc(O)c(O)c2)oc2cc(O)ccc12 (single isomer, unassigned) [Fisetin, 3,3',4',7-tetrahydroxyflavone]
protecting blood vessel and capillary [1]: protecting blood vessel and capillary | suppressing the formation of peroxidized lipids [2]: suppressing the formation of peroxidized lipids | inhibiting allergy and dermatopathies [3]: inhibiting allergy and dermatopathies

O=C1c2ccc(O)cc2OC(c2ccc(O)c(O)c2)C1O (single isomer, unassigned) [fustin, 3,3',4',7-tetrahydroxyflavanone]
protecting blood vessel and capillary [1]: protecting blood vessel and capillary | suppressing the formation of peroxidized lipids [2]: suppressing the formation of peroxidized lipids | inhibiting allergy and dermatopathies [3]: inhibiting allergy and dermatopathies

Oc1ccc2c(c1)OCO2 [Sesamol]
anti-oxidative activity relative to Sesamol's 100 [4]: 100

CC1(C)CC[C@]2(C(=O)O)CC[C@]3(C)C(=CC[C@@H]4[C@@]5(C)CC[C@H](O)C(C)(C)[C@@H]5CC[C@]43C)[C@@H]2C1 [oleanolic acid]
differentiation of F9 teratocarcinoma cells (in words) (F9 teratocarcinoma cells): capable of differentiating F9 teratocarcinoma cells into normal cells; also recorded: induce the differentiation of F9 teratocarcinoma cells by regulating the gene involved in the differentiation | inhibitory activity on angiogenesis (in words) (angiogenesis): some inhibitory activity on angiogenesis | anti-cancer activity (in words) (cancer): have anti-cancer activity

CC1=C(/C=C/C(C)=C/C=C/C(C)=C/C(=O)O)C(C)(C)CCC1 [retinoic acid]
differentiation of cancer cells (in words) (cancer cells): induce the differentiation of cancer cells to normal cells | differentiation of F9 teratocarcinoma cells (in words) (F9 teratocarcinoma cells): transforms into a primitive developmental form | expression of LamB1 gene (northern blotting) (LamB1 gene): converts the gene of the cancer cell to express LamBl gene | inhibitory activity on angiogenesis (in words) (angiogenesis): inhibit angiogenesis

CC1CCC2(C(=O)O)CCC3(C)C(=CCC4C5(C)CCC(O)C(C)(C)C5CCC43C)C2C1C (stereo not shown) [urusolic acid]
differentiation of F9 teratocarcinoma cells (in words) (F9 teratocarcinoma cells): capable of differentiating F9 teratocarcinoma cells into normal cells; also recorded: induce the differentiation of F9 teratocarcinoma cells by regulating the gene involved in the differentiation | inhibitory activity on angiogenesis (in words) (angiogenesis): some inhibitory activity on angiogenesis | anti-cancer activity (in words) (cancer): have anti-cancer activity

C=C1CCC(O)CC1=CC=C1CCCC2(C)C1CCC2C(C)CCCC(C)C (stereo not shown) [vitamin D3]
differentiation of cancer cells (in words) (cancer cells): induce the differentiation of cancer cells to normal cells | inhibitory activity on angiogenesis (in words) (angiogenesis): inhibit angiogenesis
